Measurements published in US20200188468A1, “A COATED COSTUS COMPOSITION ENRICHED WITH TRITERPENOIDS AND A METHOD OF PREPARATION OF THE SAME” (priority 2017, published 2020).

How the values were obtained:
Assay type in all cases: in vivo, Wistar rats
[1] = tested on: streptozotocin-induced diabetic rats; test: Oral glucose tolerance test on day 1, 15 and 30 of 30 days treatment; conditions: STZ diabetic rats, doses as in E42
Description: (§1) Adult Wistar rats weighing 200-250 gm were selected at random; the animals were kept in standard animal house conditions at 24±2° C., 65% relative humidity and 12 h light/dark cycle. After five days of acclimatisation, diabetes was induced by injecting streptozotocin 35 mg/kg dissolved in 0.1M citrate buffer of pH 4.5, intraperitoneally, as standardised in our laboratory. Five days after induction of diabetes (day 1 of the study), animals fasted for 12 hours and the fasting blood glucose level (FBG) was estimated for diagnosing diabetic rats. Animals having FBG more than 250 mg/dl were included in the study.
(§2) Six normal healthy rats were allocated to Group I; streptozotocin-induced diabetic rats were randomly allocated to Groups 2 to 9 with 6 rats in each group. The animals were treated for 30 days as per below experimental design:
(§3) Group 3—Positive control—diabetic animals administered with glibenclamide at 1 mg/kg Body wt orally for 30 days.
(§4) Group 4—diabetic animals administered with Sample 1 at 100 mg/kg Body wt orally for 30 days.
(§5) Group 5—diabetic animals administered with Sample 2 at 100 mg/kg Body wt orally for 30 days.
(§6) Group 6—diabetic animals administered with of Sample 3 at 100 mg/kg Body wt orally for 30 days.
(§7) Group 7—diabetic animals administered with Product-1 at 50 mg/kg Body wt orally for 30 days.
(§8) Group 8—diabetic animals administered with Product-2 at 50 mg/kg Body wt orally for 30 days.
(§9) Group 9—diabetic animals administered with of Product-3 at 10 mg/kg Body wt orally for 30 days.
(§10) Oral glucose tolerance test (OGTT) was performed following a glucose challenge of 2 g/kg by oral gavages. It was to test the ability of body cells to absorb glucose after you ingest a given amount of sugar. Blood glucose was recorded at 30 min (PPG1), 60 min (PPG2), 120 min (PPG3) and 180 min (PPG4), after the glucose challenge on day 1, day 15 and day 30 of the study.

[2] = tested on: streptozotocin-induced diabetic rats; test: Postprandial glucose levels (OGTT) of costus in various dosages; conditions: STZ diabetic rats, 1 mg/kg oral
Description: Adult Wistar rats weighing 200-250 gm were selected at random; the animals were kept in standard animal house conditions at 24±2° C., 65% relative humidity and 12 h light/dark cycle. The animals were acclimatized for a period of five days and fed with standard pellet diet and water. Six healthy rats were separated at random from the lot and diabetes was induced in rest by a single intra-peritoneal injection of streptozotocin (STZ) at 35 mg/kg. Fasting blood sugar (FBS) was measured after seven days of STZ injection and rats having FBS more than 200 mg/dl were considered as diabetic. The diabetic rats were separated out and randomly divided into 11 groups having six rats in each. Six normal healthy rats were allocated to Group I; STZ induced diabetic rats were randomly allocated to Groups 2 to 12.
as §10, with “min,” for “min (PPG1),”, “min,” for “min (PPG2),”, “min” for “min (PPG3)”, “min,” for “min (PPG4),”, “day” for “day 1, day 15 and day 30”
Just after glucose challenge test a specific Doses of Sample-1 (from example 1) and Product-2 (from example 4) were administered through oral gavages. The dosages for Sample-1 and Product-1 were in a range of 25 mg/kg Body wt to 300 mg/kg Body wt. In one of the groups animals were administered with glibenclamide.
Group 2—Positive control—diabetic animals administered with glibenclamide at 1 mg/kg Body wt orally for 30 days.
Group 3—diabetic animals administered with Sample-2 at 25 mg/kg Body wt orally for 30 days.
Group 4—diabetic animals administered with Sample-2 at 50 mg/kg Body wt orally for 30 days.
Group 5—diabetic animals administered with Sample-2 at 75 mg/kg Body wt orally for 30 days.
Group 6—diabetic animals administered with Sample-2 at 100 mg/kg Body wt orally for 30 days.
Group 7—diabetic animals administered with Sample-2 at 150 mg/kg Body wt orally for 30 days.
Group 8—diabetic animals administered with Sample-2 at 300 mg/kg Body wt orally for 30 days.
Group 9—diabetic animals administered with Product-2 at 25 mg/kg Body wt orally for 30 days.
Group 10—diabetic animals administered with Product-2 at 50 mg/kg Body wt orally for 30 days.
Group 11—diabetic animals administered with Product-2 at 75 mg/kg Body wt orally for 30 days.
Group 12—diabetic animals administered with Product-2 at 100 mg/kg Body wt orally for 30 days.
Group 13—diabetic animals administered with Product-2 at 150 mg/kg Body wt orally for 30 days.

[3] = tested on: high-fat diet-induced insulin resistance rats; test: High fat diet-induced insulin resistance model (Type 2 diabetes); conditions: HFD rats
Description: The study was designed to evaluate the effect of different fractions and compositions of costus on high fat-induced resistance Type-2 diabetic model (HFD). Adult Wistar rats were allowed free access to food and water. They were housed under identical standard conditions. The animals were kept for acclimatisation for a period of 7 days. After 7 days, the animals were randomly divided into six groups of six rats each. The normal control group was treated with normal regular diet and the rest of the animals were fed with high-fat diet for 6 weeks. After 6 weeks, Sample-1, Sample-3, and Product-2 were administered at a specific dosage as per their groups for 6 consecutive weeks. The experimental design was as follows:
as §3
Group 4—diabetic animals administered with Sample-1 at 300 mg/kg Body wt orally for 30 days.
Group 5—diabetic animals administered with Sample-3 at 100 mg/kg Body wt orally for 30 days.
Group 6—diabetic animals administered with of Product-2 at 50 mg/kg Body wt orally for 30 days.
Body weights were determined weekly. At the end of experimental period, blood samples were collected to determine plasma glucose, insulin, glycosylated haemoglobin, triglycerides, and total cholesterol, LDL, HDL and VLDL.

[4] = tested on: streptozotocin and HFD diabetic rats; test: Streptozotocin plus high fat diet Type 2 diabetes model, coated versus uncoated costus extract; conditions: STZ + HFD diabetic rats
Description: Wistar rats were selected at random; the animals were kept in standard animal house conditions at 24±2° C., 65% relative humidity and 12 h light/dark cycle. The animals were acclimatized for a period of five days and fed with standard pellet diet and water. Fasted male Wistar rats were intraperitoneally injected with freshly prepared solution of streptozotocin (STZ) (35 mg/kg). After injection, all the animals were continued on the standard rodent diet for 2 weeks. At the end of 2 weeks after STZ injection; 1 ml of blood was collected from retro-orbital plexus of each rat. Blood was allowed to clot for 30 min the serum was separated by centrifuging at 1008 G-force for 20 min at 8.0° C. in a cold centrifuge. The serum separated from the blood of each animal was used for the estimation of glucose. All the samples were analysed calorimetrically in Autoanalyzer (MERCK MICROLAB 300) using commercial kits. The development of hyperglycaemia in these rats was thus confirmed by measuring fasting blood glucose levels. The rats with the fasting PGL of ≥200 mg dl−1 were considered diabetic and selected for further dietary manipulation. 350 g of standard rodent diet was powdered and mixed with 60 g of lard, 45 g of yolk powder, and 45 g of plantation white sugar (HFD diet). The above mixture is pelleted and used to feed the rats for 2 weeks to induce diabetic dyslipidaemia. Required amount of the diet was freshly prepared on a daily basis. At the end of 2nd week the blood was collected from each animal for determination of glucose levels as described above.
After the second fasting blood glucose estimation, at the end of 4th week, the rats were divided into 6 groups of 6 rats each: Group-1 consisted of age-matched non-diabetic normal rats that neither received streptozotocin nor the high-fat diet and served as normal; Group 2 consisted of diabetic rats without any drug treatment and served as untreated control; Group 3 consisted of diabetic rats and received standard drug, Glibenclamide. Group 4 consisted of diabetic rats and received excipients. Group 5 consisted of diabetic rats and sample 2. Group 6 consisted of diabetic rats and product 2. The high fat diet was continued for the rest of the study duration.
Group 3—Diabetic, HFD administered group treated with Glibenclamide at 2.5 mg/Kg p.o. body weight.
Group 5—Diabetic, HFD administered group treated with sample 2 for at 40 mg/kg twice daily.
Group 6—Diabetic, HFD administered group treated with product-2 at 100 mg/kg twice daily.
Body weights were determined biweekly. At the end of experimental period, blood samples were collected to determine plasma glucose, insulin, leptin, glycosylated hemoglobin, triglycerides, total cholesterol, LDL, HDL and VLDL.

[5] = tested on: streptozotocin-induced diabetic rats; test: Fasting blood glucose level, 30 days treatment; conditions: STZ diabetic rats, glibenclamide 1 mg/kg, Samples 1-3 100 mg/kg, Product-1 and -2 50 mg/kg, Product-3 10 mg/kg orally
Description: as §1, §2, §3, §4, §5, §6, §7, §8, §9
FBG was measured on Day 0, Day 15 and Day 30. OGTT was also performed on Day 0, Day 15 and Day 30.

[6] = end of experimental period, doses as in E59

SMILES: COc1ccc(Cl)cc1C(=O)NCCc1ccc(S(=O)(=O)NC(=O)NC2CCCCC2)cc1 [glibenclamide]
- PPG 30 min, Day 1 ([1]; Day 1, 30 min after 2 g/kg glucose): 294 mg/dL
- PPG 60 min, Day 1 ([1]; Day 1, 60 min after 2 g/kg glucose): 232 mg/dL
- PPG 120 min, Day 1 ([1]; Day 1, 120 min after 2 g/kg glucose): 226 mg/dL
- PPG 180 min, Day 1 ([1]; Day 1, 180 min after 2 g/kg glucose): 158 mg/dL
- PPG 30 min, Day 15 ([1]; Day 15, 30 min after 2 g/kg glucose): 285 mg/dL
- PPG 60 min, Day 15 ([1]; Day 15, 60 min after 2 g/kg glucose): 225 mg/dL
- PPG 120 min, Day 15 ([1]; Day 15, 120 min after 2 g/kg glucose): 219 mg/dL
- PPG 180 min, Day 15 ([1]; Day 15, 180 min after 2 g/kg glucose): 153 mg/dL
- PPG 30 min, Day 30 ([1]; Day 30, 30 min after 2 g/kg glucose): 276 mg/dL
- PPG 60 min, Day 30 ([1]; Day 30, 60 min after 2 g/kg glucose): 218 mg/dL
- PPG 120 min, Day 30 ([1]; Day 30, 120 min after 2 g/kg glucose): 212 mg/dL
- PPG 180 min, Day 30 ([1]; Day 30, 180 min after 2 g/kg glucose): 148 mg/dL
- Postprandial glucose level 30 min ([2]; 30 min after 2 g/kg glucose): 294 mg/dL
- Postprandial glucose level 60 min ([2]; 60 min after 2 g/kg glucose): 170 mg/dL
- Postprandial glucose level 120 min ([2]; 120 min after 2 g/kg glucose): 127 mg/dL
- Postprandial glucose level 180 min ([2]; 180 min after 2 g/kg glucose): 101 mg/dL
- Blood glucose [3, 6]: 142 mg/dL
- Glycosylated Hb [3, 6]: 0.5 % of total Hb
- HDL [3, 6]: 27 mg/dL
- LDL [3, 6]: 55 mg/dL
- TC [3, 6]: 91.4 mg/dL
- TG [3, 6]: 47 mg/dL
- VLDL [3, 6]: 9.4 mg/dL
- Insulin ([3]; serum, end of experimental period, doses as in E59): 1.7 ng/mL
- Body weight, week 0 ([3]; week 0, glibenclamide 1 mg/kg, Sample-1 300 mg/kg, Sample-3 100 mg/kg, Product-2 50 mg/kg orally): 216 grams
- Average Body weight at weekly interval, week 2 ([3]; week 2, doses as in E59): 259 grams
- Average Body weight at weekly interval, week 3 ([3]; week 3, doses as in E59): 274 grams
- Average Body weight at weekly interval, week 4 ([3]; week 4, doses as in E59): 280 grams
- Average Body weight at weekly interval, week 5 ([3]; week 5, doses as in E59): 270 grams
- Average Body weight at weekly interval, week 6 ([3]; week 6, doses as in E59): 248 grams
- Glycosylated Hb ([4]; after 28 days, doses as in E92): 0.5 % of total Hb
- HDL ([4]; after 28 days, doses as in E92): 25 mg/dL
- LDL ([4]; after 28 days, doses as in E92): 92 mg/dL
- TC ([4]; after 28 days, doses as in E92): 136.4 mg/dL
- TG ([4]; after 28 days, doses as in E92): 97 mg/dL
- VLDL ([4]; after 28 days, doses as in E92): 19.4 mg/dL
- Body weight at biweekly interval, 0 ([4]; interval 0, Glibenclamide 2.5 mg/kg p.o., sample 2 40 mg/kg, product-2 100 mg/kg twice daily): 168 grams
- Body weight at biweekly interval, 2 ([4]; interval 2, doses as in E92): 174 grams
- Body weight at biweekly interval, 4 ([4]; interval 4, doses as in E92): 180 grams
- Body weight at biweekly interval, 6 ([4]; interval 6, doses as in E92): 187 grams
- Body weight at biweekly interval, 8 ([4]; interval 8, doses as in E92): 192 grams
- Insulin ([4]; serum, after 28 days, doses as in E92): 1.58 ng/mL
- Fasting blood glucose level 0th day ([5]; day 0): 388 mg/dL
- Fasting blood glucose level 15th day ([5]; day 15): 266 mg/dL
- Fasting blood glucose level 30th day ([5]; day 30): 142 mg/dL
